Source: patent publication US9056851B2, “Thiolactone antibiotics” (priority 2011, dated 2015)
In brackets after ≈: the same amount, converted by molar mass. Where two headings read alike, the source gives them in different places.

Assays:
F. tularensis LVS = experiment: microbe, parasite or virus in culture; type: cell-based; conditions: Francisella tularensis, read-out: MIC (μg/ml) F. tu
S. aureus BAA1762 = experiment: MIC against S. aureus BAA1762 (MRSA); type: cell-based; conditions: Staphylococcus aureus, read-out: MIC (μg/ml) Staph. aureus BAA1762 MRSA
B. pseudomallei Bp82z66 = experiment: microbe, parasite or virus in culture; type: cell-based; conditions: Burkholderia pseudomallei, BP82Z66, read-out: MIC (μg/ml) B. pseudomallei
S. aureus RN4220 = experiment: MIC against S. aureus RN4220 (MSSA); type: cell-based; conditions: Staphylococcus aureus
M. tuberculosis H37Rv = experiment: MIC against M. tuberculosis; type: cell-based; conditions: Mycobacterium tuberculosis, read-out: MIC (μg/ml) M. tb (MIC99)
B. thialandensis Bt38 = experiment: MIC against B. thialandensis; type: cell-based; conditions: read-out: MIC (μg/ml) B. thialandensis Bt.38 (efflux^−)
Y. pestis A1122 = experiment: microbe, parasite or virus in culture; type: cell-based; conditions: Yersinia pestis, A1122, read-out: MIC (μg/ml) Y. pestis
M. smegmatis MC^2155 = experiment: MIC against M. smegmatis; type: cell-based; conditions: Mycolicibacterium smegmatis
[1] = in vivo; cited from earlier work
Pasteurella multocida = conditions: cited from earlier work
Salmonella typhi = conditions: cited from earlier work
Salmonella enterides T-1 = conditions: cited from earlier work
Serratia marcescens [2] = conditions: urinary tract and oral infections; cited from earlier work
[3] = rats, orally and by intramuscular injection; cited from earlier work
Serratia marcescens [4] = conditions: cited from earlier work
Klebsiella pneumoniae [5] = conditions: urinary tract and oral infections; cited from earlier work
E. coli No9 = conditions: cited from earlier work
Staphylococcus aureus = conditions: cited from earlier work
Shigella flexneri 2b T1 = conditions: cited from earlier work
bacteria of Table 4 = conditions: broad range of bacteria (Table 4); cited from earlier work
E. coli 11 = conditions: cited from earlier work
Shigella sonnei T1 = conditions: cited from earlier work
mammalian FAS-I enzymes = conditions: selectivity versus FAS-II KAS enzymes; cited from earlier work
Salmonella paratyphi = conditions: cited from earlier work
Klebsiella pneumoniae [6] = conditions: cited from earlier work
M. tuberculosis = conditions: cited from earlier work
[7] = in vivo; cited from earlier work; remark: listed apart in the source
E. coli NIHJ = conditions: cited from earlier work
[8] = MIC90, read-out: MIC (μg/ml) Staph. aureus RN4220 MSSA

C=C/C(C)=C/[C@@]1(C)SC(=O)C(C(=O)OC)=C1O [TLM37]
MIC (F. tularensis LVS): 58.2 µg/mL (≈ 229 µM)
MIC (S. aureus BAA1762; MIC90): > 64 µg/mL
MIC (B. pseudomallei Bp82z66): 160 µg/mL (≈ 631 µM)
MIC (S. aureus RN4220; [8]): > 64 µg/mL
MIC99 (M. tuberculosis H37Rv; MIC99, H37Rv): 100 µg/mL (≈ 393 µM)

C=C/C(C)=C/[C@@]1(C)SC(=O)C(CCCCn2cc(CNC(=O)c3ccc(NS(=O)(=O)c4ccc(F)cc4)cc3)nn2)=C1O [TLM34]
MIC (F. tularensis LVS): 250 µg/mL (≈ 400 µM)
MIC (S. aureus BAA1762; MIC90): > 100 µg/mL
MIC (S. aureus RN4220; [8]): > 64 µg/mL
MIC (B. thialandensis Bt38): 250 µg/mL (≈ 400 µM)
MIC99 (M. tuberculosis H37Rv; MIC99, H37Rv): 12.5 µg/mL (≈ 20 µM)
MIC (Y. pestis A1122): 250 µg/mL (≈ 400 µM)

C=C/C(C)=C/[C@@]1(C)SC(=O)C(CCCCn2cc(CNC(=O)[C@H](O)C(C)(C)CO)nn2)=C1O [TLM33]
MIC (F. tularensis LVS): 250 µg/mL (≈ 522 µM)
MIC (S. aureus BAA1762; MIC90): > 100 µg/mL
MIC (S. aureus RN4220; [8]): > 64 µg/mL
MIC (B. thialandensis Bt38): 250 µg/mL (≈ 522 µM)
MIC99 (M. tuberculosis H37Rv; MIC99, H37Rv): > 100 µg/mL
MIC (Y. pestis A1122): 250 µg/mL (≈ 522 µM)

C=C/C(C)=C/[C@@]1(C)SC(=O)C(CCc2ccc(C)cc2)=C1O [TLM5]
MIC (M. smegmatis MC^2155; MC^2155, MIC90, read-out: MIC (μg/ml) M. smeg): > 100 µg/mL
MIC (F. tularensis LVS): 3.45 µg/mL (≈ 11 µM)
MIC (S. aureus BAA1762; MIC90): > 100 µg/mL
MIC (S. aureus RN4220; [8]): > 64 µg/mL
MIC (B. thialandensis Bt38): 250 µg/mL (≈ 795 µM)
MIC99 (M. tuberculosis H37Rv; MIC99, H37Rv): 25 µg/mL (≈ 79.5 µM)
MIC (Y. pestis A1122): 250 µg/mL (≈ 795 µM)

C=C/C(C)=C/[C@@]1(C)SC(=O)C=C1OCC(=O)NCCn1cc(CNC(=O)c2ccc(NS(=O)(=O)c3ccc(F)cc3)cc2)nn1 [TLM42]
MIC (F. tularensis LVS): > 256 µg/mL
MIC (S. aureus BAA1762; MIC90): > 64 µg/mL
MIC (B. pseudomallei Bp82z66): 178 µg/mL (≈ 272 µM)
MIC (S. aureus RN4220; [8]): > 64 µg/mL
MIC99 (M. tuberculosis H37Rv; MIC99, H37Rv): 100 µg/mL (≈ 153 µM)

C=C/C(C)=C/[C@@]1(C)SC(=O)C(CCc2ccc(Cl)cc2)=C1O [TLM31]
MIC (F. tularensis LVS): 3.1 µg/mL (≈ 9.24 µM)
MIC (S. aureus BAA1762; MIC90): 100 µg/mL (≈ 299 µM)
MIC (S. aureus RN4220; [8]): 64 µg/mL (≈ 191 µM)
MIC (B. thialandensis Bt38): 250 µg/mL (≈ 747 µM)
MIC99 (M. tuberculosis H37Rv; MIC99, H37Rv): 25 µg/mL (≈ 74.7 µM)
MIC (Y. pestis A1122): 250 µg/mL (≈ 747 µM)

C=C/C(C)=C/[C@@]1(C)SC(=O)C(C)=C1O [TLM, 5R-(+)-Thiolactomycin]
MIC (M. smegmatis MC^2155; MC^2155, read-out: MIC (μg/ml) M. smeg): 25 µg/mL (≈ 119 µM)
bioavailability [1]: high bioavailability
MIC (F. tularensis LVS): 2.81 µg/mL (≈ 13.4 µM)
MIC (Pasteurella multocida): 0.2 µg/mL (≈ 0.951 µM)
MIC (Salmonella typhi): 12.5 µg/mL (≈ 59.4 µM)
MIC (Salmonella enterides T-1): 12.5 µg/mL (≈ 59.4 µM)
protection from infection (Serratia marcescens [2]): provides protection
absorption [3]: rapidly absorbed
MIC (Serratia marcescens [4]): 100 µg/mL (≈ 476 µM)
protection from infection (Klebsiella pneumoniae [5]): provides protection
MIC (E. coli No9): 100 µg/mL (≈ 476 µM)
MIC (S. aureus BAA1762): 75 µg/mL (≈ 357 µM)
MIC (B. pseudomallei Bp82z66): 13.1 µg/mL (≈ 62.4 µM)
MIC (Staphylococcus aureus): 25 µg/mL (≈ 119 µM)
MIC (S. aureus RN4220; read-out: MIC (μg/ml) Staph. aureus RN4220 MSSA): 75 µg/mL (≈ 357 µM)
MIC (Shigella flexneri 2b T1): 6.3 µg/mL (≈ 30 µM)
MIC values, range over organisms (bacteria of Table 4): 6 to 200 µg/mL
MIC99 (M. tuberculosis H37Rv; H37RV): 3.13 µg/mL (≈ 14.9 µM)
MIC (Y. pestis A1122): 8.09 µg/mL (≈ 38.5 µM)
MIC (E. coli 11): 25 µg/mL (≈ 119 µM)
MIC (Shigella sonnei T1): 100 µg/mL (≈ 476 µM)
inhibition of mammalian FAS-I enzymes (mammalian FAS-I enzymes): does not inhibit
MIC (Salmonella paratyphi): 50 µg/mL (≈ 238 µM)
MIC (Klebsiella pneumoniae [6]): 100 µg/mL (≈ 476 µM)
MIC (M. tuberculosis): 25 µg/mL (≈ 119 µM)
toxicity [7]: low toxicity
MIC (E. coli NIHJ): 200 µg/mL (≈ 951 µM)

C=C/C(C)=C/[C@@]1(C)SC(=O)C(C(=O)c2ccccc2C(=O)O)=C1O [TLM39]
MIC (F. tularensis LVS): 16 µg/mL (≈ 46.4 µM)
MIC (S. aureus BAA1762; MIC90): 32 µg/mL (≈ 92.9 µM)
MIC (B. pseudomallei Bp82z66): 155 µg/mL (≈ 449 µM)
MIC (S. aureus RN4220; [8]): 32 µg/mL (≈ 92.9 µM)
MIC99 (M. tuberculosis H37Rv; MIC99, H37Rv): > 100 µg/mL

C=C/C(C)=C/[C@@]1(C)SC(=O)C=C1OCC(=O)NCCN=[N+]=[N-] [TLM40]
MIC (F. tularensis LVS): 39.1 µg/mL (≈ 121 µM)
MIC (S. aureus BAA1762; MIC90): > 64 µg/mL
MIC (B. pseudomallei Bp82z66): > 256 µg/mL
MIC (S. aureus RN4220; [8]): > 64 µg/mL
MIC99 (M. tuberculosis H37Rv; MIC99, H37Rv): > 100 µg/mL

C=C/C(C)=C/[C@@]1(C)SC(=O)C=C1OCC(=O)NCCNC(=O)OC(C)(C)C [TLM41]
MIC (F. tularensis LVS): 54.5 µg/mL (≈ 137 µM)
MIC (S. aureus BAA1762; MIC90): > 64 µg/mL
MIC (B. pseudomallei Bp82z66): > 256 µg/mL
MIC (S. aureus RN4220; [8]): > 64 µg/mL
MIC99 (M. tuberculosis H37Rv; MIC99, H37Rv): > 100 µg/mL

C=C/C(C)=C/[C@@]1(C)SC(=O)C(C(=O)CCC)=C1O [TLM38]
MIC (F. tularensis LVS): 1.82 µg/mL (≈ 6.83 µM)
MIC (S. aureus BAA1762; MIC90): 32 µg/mL (≈ 120 µM)
MIC (B. pseudomallei Bp82z66): 171 µg/mL (≈ 644 µM)
MIC (S. aureus RN4220; [8]): 16 µg/mL (≈ 60.1 µM)
MIC99 (M. tuberculosis H37Rv; MIC99, H37Rv): 12.5 µg/mL (≈ 46.9 µM)

C=C/C(C)=C/[C@@]1(C)SC(=O)C(C(C)=O)=C1O [TLM35]
MIC (F. tularensis LVS): 8.78 µg/mL (≈ 36.8 µM)
MIC (S. aureus BAA1762; MIC90): 32 µg/mL (≈ 134 µM)
MIC (B. pseudomallei Bp82z66): 155 µg/mL (≈ 649 µM)
MIC (S. aureus RN4220; [8]): 64 µg/mL (≈ 269 µM)
MIC99 (M. tuberculosis H37Rv; MIC99, H37Rv): 12.5 µg/mL (≈ 52.5 µM)

C=C/C(C)=C/[C@@]1(C)SC(=O)C(C(=O)CCCCN=[N+]=[N-])=C1O [TLM44]
MIC (S. aureus BAA1762; MIC90): 16 µg/mL (≈ 49.8 µM)
MIC (S. aureus RN4220; [8]): 16 µg/mL (≈ 49.8 µM)
